Legend:
Experiment in all cases: KiNativ chemical proteomics profiling in HeLa and PC3 cell lysates
Assay type in all cases: binding
[1] = target: T1, selected panels of kinases in HeLa and PC3 cell lysates (Homo sapiens, UniProt P51617); conditions: 10 uM; proteome PC3; peptide […]k[…]; labeling site Lys2
T1 construct: endogenous in cells; host or cells: HeLa and PC3 cell lysates

[2] = target: T2, selected panels of kinases in HeLa and PC3 cell lysates (Homo sapiens, UniProt P07948); conditions: 10 uM; proteome HEL; peptide VAVk[…]; labeling site Lys1
T2 construct: endogenous in cells; host or cells: HeLa and PC3 cell lysates

[3] = target: T3, selected panels of kinases in HeLa and PC3 cell lysates (Homo sapiens, UniProt O75460); conditions: 10 uM; proteome HEL; peptide DLk[…]; labeling site Lys2
T3 construct: endogenous in cells; host or cells: HeLa and PC3 cell lysates

[4] = target: T4, selected panels of kinases in HeLa and PC3 cell lysates (Homo sapiens, UniProt Q07912); conditions: 10 uM; proteome HEL; peptide TVSVAVk[…]; labeling site Lys1
T4 construct: endogenous in cells; host or cells: HeLa and PC3 cell lysates

[5] = target: T5, selected panels of kinases in HeLa and PC3 cell lysates (Homo sapiens, UniProt Q16539); conditions: 10 uM
T5 construct: endogenous in cells; host or cells: HeLa and PC3 cell lysates

[6] = target: T6, selected panels of kinases in HeLa and PC3 cell lysates (Homo sapiens, UniProt P46734); conditions: 10 uM, peptide DVkPSNVLINK, labeling site Lys2
T6 construct: endogenous in cells; host or cells: HeLa and PC3 cell lysates
T6 sequence (P46734 1-347): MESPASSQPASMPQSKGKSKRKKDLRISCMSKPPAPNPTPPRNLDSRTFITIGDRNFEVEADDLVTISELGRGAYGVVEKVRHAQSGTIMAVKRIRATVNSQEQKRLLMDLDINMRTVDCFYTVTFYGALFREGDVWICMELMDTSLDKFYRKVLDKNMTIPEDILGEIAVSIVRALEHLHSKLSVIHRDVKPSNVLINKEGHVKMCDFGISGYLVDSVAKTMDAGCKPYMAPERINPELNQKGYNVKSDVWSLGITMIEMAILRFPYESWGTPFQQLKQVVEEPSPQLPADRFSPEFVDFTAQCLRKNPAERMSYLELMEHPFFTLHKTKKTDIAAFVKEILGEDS

[7] = target: T7, selected panels of kinases in HeLa and PC3 cell lysates (Homo sapiens, UniProt Q96GD4); conditions: 10 uM; proteome HEL; peptide SHFIVALkVLFK; labeling site Lys1
T7 construct: endogenous in cells; host or cells: HeLa and PC3 cell lysates

[8] = target: T8, selected panels of kinases in HeLa and PC3 cell lysates (Homo sapiens, UniProt P23743); conditions: 10 uM; proteome HEL; peptide […]kSGGK; labeling site ATP
T8 construct: endogenous in cells; host or cells: HeLa and PC3 cell lysates

[9] = target: T9, selected panels of kinases in HeLa and PC3 cell lysates (Homo sapiens, UniProt Q9NZJ5); conditions: 10 uM, PEK, peptide DLk[…], labeling site Lys2
T9 construct: endogenous in cells; host or cells: HeLa and PC3 cell lysates
T9 sequence (Q9NZJ5 30-1116): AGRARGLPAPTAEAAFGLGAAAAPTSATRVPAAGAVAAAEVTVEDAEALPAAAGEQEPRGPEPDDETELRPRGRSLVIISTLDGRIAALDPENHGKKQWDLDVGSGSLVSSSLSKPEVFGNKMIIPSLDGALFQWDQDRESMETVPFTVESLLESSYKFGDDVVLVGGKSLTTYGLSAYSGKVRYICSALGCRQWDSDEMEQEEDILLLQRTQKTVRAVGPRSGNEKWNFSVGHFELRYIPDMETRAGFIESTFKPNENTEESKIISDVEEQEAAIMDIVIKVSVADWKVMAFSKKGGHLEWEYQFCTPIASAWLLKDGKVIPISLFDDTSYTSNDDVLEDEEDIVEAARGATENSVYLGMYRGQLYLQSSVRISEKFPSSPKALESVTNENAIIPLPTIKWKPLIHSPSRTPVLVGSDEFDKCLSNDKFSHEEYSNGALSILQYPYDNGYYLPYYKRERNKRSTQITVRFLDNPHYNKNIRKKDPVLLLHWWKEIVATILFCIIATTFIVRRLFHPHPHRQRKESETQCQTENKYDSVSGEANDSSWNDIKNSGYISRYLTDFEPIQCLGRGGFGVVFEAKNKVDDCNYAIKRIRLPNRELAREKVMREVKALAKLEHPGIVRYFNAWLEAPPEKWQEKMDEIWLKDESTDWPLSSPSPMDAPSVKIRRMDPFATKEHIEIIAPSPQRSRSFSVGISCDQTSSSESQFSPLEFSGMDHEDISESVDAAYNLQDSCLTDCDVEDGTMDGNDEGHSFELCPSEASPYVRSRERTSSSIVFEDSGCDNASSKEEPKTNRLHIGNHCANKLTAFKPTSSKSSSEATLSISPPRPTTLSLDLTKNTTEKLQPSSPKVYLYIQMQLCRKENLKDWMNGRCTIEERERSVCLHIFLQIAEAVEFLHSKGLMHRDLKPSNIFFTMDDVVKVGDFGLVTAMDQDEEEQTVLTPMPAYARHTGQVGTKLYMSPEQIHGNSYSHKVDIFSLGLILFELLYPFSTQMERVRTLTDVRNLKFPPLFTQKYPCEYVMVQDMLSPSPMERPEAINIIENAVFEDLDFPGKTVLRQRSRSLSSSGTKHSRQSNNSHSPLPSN

[10] = target: T10, selected panels of kinases in HeLa and PC3 cell lysates (Homo sapiens, UniProt Q13555); conditions: 10 uM, peptide TSTQEYAAkIINTK, labeling site Lys1
T10 construct: endogenous in cells; host or cells: HeLa and PC3 cell lysates

[11] = target: T11, selected panels of kinases in HeLa and PC3 cell lysates (Homo sapiens, UniProt Q14164); conditions: 10 uM; proteome HEL; peptide SGELVAVk[…]; labeling site Lys1
T11 construct: endogenous in cells; host or cells: HeLa and PC3 cell lysates

[12] = target: T12, selected panels of kinases in HeLa and PC3 cell lysates (Homo sapiens, UniProt O15530); conditions: 10 uM; PDK1; peptide EYAIkILEK; proteome PC3; labeling site Lys1
T12 construct: endogenous in cells; host or cells: HeLa and PC3 cell lysates

[13] = target: T13, selected panels of kinases in HeLa and PC3 cell lysates (Homo sapiens, UniProt Q9NRH2); conditions: 10 uM; SNRK; peptide DLkPENVVFFEK; proteome PC3; labeling site Lys2
T13 construct: endogenous in cells; host or cells: HeLa and PC3 cell lysates

[14] = target: T14, selected panels of kinases in HeLa and PC3 cell lysates (Homo sapiens, UniProt P78527); conditions: 10 uM, labeling site ATP
T14 construct: endogenous in cells; host or cells: HeLa and PC3 cell lysates

[15] = proteome HEL, peptide DLk[…], labeling site Lys2
[16] = proteome HEL, peptide QELNkTIWEVPER, labeling site Other
[17] = proteome PC3, peptide DLk[…], labeling site Lys2
[18] = proteome PC3, peptide QELNkTIWEVPER, labeling site Other

T14 sequence (P78527 whole entry): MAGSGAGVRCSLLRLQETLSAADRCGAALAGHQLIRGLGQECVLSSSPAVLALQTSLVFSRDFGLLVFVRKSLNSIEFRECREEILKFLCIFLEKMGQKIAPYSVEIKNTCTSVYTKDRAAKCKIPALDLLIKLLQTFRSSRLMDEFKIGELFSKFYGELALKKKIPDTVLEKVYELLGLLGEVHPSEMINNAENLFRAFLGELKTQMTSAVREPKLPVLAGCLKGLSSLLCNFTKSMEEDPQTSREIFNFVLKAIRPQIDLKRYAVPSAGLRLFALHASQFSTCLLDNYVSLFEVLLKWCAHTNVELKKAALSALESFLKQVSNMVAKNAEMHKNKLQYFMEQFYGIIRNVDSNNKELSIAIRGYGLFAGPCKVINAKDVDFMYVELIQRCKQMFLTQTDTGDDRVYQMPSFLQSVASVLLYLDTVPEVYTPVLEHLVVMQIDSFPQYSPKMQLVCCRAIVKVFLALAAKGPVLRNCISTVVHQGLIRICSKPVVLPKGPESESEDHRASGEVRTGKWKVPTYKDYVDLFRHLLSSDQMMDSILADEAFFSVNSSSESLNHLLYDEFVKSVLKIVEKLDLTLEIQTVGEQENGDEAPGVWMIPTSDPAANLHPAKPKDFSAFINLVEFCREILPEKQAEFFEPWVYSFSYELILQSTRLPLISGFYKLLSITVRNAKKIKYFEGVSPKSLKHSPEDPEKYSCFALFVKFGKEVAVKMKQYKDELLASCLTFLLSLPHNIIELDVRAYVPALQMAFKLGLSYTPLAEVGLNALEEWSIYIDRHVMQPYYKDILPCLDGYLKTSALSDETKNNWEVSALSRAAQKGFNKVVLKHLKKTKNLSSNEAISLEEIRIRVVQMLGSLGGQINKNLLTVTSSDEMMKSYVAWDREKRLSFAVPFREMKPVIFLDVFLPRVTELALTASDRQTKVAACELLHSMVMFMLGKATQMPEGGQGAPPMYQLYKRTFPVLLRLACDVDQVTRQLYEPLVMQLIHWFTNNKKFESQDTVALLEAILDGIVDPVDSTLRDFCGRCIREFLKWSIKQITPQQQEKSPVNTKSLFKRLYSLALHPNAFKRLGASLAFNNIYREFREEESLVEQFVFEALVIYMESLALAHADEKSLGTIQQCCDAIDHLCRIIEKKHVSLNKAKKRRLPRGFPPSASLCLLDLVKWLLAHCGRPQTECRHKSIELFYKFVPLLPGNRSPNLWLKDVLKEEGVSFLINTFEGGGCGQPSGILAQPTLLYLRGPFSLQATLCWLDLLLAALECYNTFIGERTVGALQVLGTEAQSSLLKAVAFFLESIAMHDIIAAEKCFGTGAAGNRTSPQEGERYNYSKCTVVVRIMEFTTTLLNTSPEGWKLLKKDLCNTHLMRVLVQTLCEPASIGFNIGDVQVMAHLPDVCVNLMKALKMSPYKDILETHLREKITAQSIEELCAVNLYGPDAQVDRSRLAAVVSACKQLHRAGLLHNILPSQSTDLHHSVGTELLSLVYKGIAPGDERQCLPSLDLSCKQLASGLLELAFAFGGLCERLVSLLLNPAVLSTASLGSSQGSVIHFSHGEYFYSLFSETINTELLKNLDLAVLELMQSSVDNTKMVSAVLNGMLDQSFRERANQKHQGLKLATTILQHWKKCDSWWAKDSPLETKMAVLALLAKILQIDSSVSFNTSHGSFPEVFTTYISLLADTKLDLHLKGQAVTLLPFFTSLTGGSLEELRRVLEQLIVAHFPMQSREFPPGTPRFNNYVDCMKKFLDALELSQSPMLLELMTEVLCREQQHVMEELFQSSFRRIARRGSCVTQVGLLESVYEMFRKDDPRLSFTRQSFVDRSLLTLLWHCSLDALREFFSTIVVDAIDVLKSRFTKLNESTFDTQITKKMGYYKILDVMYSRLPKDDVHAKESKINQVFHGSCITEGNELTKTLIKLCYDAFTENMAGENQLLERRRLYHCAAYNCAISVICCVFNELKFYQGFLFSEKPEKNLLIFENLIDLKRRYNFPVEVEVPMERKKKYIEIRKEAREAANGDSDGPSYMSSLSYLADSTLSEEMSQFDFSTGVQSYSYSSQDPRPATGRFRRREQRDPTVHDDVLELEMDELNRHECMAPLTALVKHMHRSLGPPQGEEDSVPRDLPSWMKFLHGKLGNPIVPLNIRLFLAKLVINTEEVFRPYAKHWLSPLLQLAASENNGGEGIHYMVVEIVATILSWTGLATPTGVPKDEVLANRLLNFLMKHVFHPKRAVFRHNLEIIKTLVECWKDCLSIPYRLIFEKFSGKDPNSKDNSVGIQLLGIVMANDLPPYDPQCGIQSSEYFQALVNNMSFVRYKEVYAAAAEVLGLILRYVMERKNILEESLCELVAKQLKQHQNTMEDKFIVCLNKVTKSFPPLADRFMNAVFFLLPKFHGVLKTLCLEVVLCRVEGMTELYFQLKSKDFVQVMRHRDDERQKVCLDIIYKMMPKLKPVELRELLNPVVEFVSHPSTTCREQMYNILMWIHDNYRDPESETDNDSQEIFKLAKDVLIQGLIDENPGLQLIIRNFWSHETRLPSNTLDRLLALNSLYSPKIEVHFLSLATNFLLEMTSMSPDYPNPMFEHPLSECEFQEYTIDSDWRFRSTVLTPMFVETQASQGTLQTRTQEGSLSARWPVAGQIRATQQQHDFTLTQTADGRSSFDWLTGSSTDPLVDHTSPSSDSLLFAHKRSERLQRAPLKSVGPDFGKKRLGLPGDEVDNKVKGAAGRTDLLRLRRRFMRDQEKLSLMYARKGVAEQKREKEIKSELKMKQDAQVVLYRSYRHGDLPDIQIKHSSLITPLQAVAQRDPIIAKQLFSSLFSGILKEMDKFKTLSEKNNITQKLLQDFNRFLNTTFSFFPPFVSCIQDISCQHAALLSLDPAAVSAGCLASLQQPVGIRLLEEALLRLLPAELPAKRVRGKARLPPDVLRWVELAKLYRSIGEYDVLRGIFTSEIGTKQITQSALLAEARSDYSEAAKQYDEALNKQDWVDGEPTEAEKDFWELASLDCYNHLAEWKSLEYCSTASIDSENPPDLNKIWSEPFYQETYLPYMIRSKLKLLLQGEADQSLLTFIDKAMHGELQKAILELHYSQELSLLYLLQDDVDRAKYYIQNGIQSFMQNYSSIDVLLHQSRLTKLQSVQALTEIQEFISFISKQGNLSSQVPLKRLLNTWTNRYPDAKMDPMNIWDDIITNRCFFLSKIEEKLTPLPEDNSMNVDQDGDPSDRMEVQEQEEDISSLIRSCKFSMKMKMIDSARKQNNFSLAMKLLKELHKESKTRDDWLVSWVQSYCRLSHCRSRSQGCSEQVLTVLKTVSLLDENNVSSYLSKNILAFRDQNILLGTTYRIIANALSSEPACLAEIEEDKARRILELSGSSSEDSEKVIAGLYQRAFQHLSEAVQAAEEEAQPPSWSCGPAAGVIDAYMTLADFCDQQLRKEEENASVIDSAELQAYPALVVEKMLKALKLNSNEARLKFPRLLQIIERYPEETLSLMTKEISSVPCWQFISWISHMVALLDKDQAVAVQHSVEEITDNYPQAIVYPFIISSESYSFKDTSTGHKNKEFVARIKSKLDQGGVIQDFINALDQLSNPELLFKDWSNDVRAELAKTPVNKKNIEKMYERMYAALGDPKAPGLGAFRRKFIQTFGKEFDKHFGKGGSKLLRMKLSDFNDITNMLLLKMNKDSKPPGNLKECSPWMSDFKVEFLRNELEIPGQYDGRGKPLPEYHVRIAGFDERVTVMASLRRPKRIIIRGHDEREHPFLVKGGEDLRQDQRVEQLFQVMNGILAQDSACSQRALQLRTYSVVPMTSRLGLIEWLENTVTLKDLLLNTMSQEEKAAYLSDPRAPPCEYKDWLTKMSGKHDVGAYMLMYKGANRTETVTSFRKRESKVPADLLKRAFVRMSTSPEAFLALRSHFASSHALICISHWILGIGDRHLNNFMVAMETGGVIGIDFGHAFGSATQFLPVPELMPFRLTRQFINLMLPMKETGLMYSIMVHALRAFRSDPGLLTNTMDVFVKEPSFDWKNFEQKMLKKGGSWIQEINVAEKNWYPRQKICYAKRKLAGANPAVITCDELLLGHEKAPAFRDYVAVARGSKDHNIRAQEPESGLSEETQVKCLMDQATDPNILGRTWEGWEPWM
T5 sequence (Q16539 whole entry): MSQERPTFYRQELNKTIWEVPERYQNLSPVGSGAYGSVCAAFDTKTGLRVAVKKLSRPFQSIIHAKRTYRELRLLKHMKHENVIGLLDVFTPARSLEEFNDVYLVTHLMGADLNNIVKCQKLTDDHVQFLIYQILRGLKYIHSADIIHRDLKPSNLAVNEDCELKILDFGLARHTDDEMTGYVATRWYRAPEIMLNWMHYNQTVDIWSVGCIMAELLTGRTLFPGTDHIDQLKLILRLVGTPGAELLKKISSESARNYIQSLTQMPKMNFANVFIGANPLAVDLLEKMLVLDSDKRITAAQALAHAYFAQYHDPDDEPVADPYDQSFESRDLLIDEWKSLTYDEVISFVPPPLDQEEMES
T10 sequence (Q13555 whole entry): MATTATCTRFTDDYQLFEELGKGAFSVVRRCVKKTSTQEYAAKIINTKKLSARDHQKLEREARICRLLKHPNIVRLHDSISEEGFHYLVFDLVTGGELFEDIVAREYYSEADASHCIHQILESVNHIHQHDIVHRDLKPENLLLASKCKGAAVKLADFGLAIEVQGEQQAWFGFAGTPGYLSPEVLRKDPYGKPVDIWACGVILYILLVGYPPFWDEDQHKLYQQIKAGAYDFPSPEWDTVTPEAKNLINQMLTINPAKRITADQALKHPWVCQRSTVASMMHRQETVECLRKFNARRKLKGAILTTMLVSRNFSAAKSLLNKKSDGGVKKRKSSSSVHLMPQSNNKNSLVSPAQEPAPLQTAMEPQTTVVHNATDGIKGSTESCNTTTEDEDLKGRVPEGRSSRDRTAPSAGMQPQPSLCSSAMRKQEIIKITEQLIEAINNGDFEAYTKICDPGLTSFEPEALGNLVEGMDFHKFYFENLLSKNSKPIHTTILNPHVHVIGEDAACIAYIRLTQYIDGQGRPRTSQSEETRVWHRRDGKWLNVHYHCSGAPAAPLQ

Row | SMILES | % Inhibiton, IRAK1 [1] [%] | % Inhibiton, LYN [2] [%] | % Inhibiton, IRE1 [3] [%] | % Inhibiton, ACK [4] [%] | % Inhibiton, p38a [5, 15] [%] | % Inhibiton, p38a [5, 16] [%] | % Inhibiton, p38a [5, 17] [%] | % Inhibiton, p38a [5, 18] [%] | % Inhibiton, MAP2K3 ([6]; proteome HEL) [%] | % Inhibiton, MAP2K3 ([6]; proteome PC3) [%] | % Inhibiton, AurB [7] [%] | % Inhibiton, DGKA [8] [%] | % Inhibition PEK ([9]; proteome HEL) [%] | % Inhibition PEK ([9]; proteome PC3) [%] | % Inhibiton, CaMK2g ([10]; proteome HEL) [%] | % Inhibiton, CaMK2g ([10]; proteome PC3) [%] | % Inhibiton, IKKe [11] [%] | % Inhibition PDK1 [12] [%] | % Inhibition SNRK [13] [%] | % Inhibiton, DNAPK ([14]; proteome HEL, peptide […]k[…]) [%] | other results
1 | CCOc1cc(C(=O)N2CCC(N3CCN(C)CC3)CC2)ccc1Nc1ncc2c(n1)N(C1CCCC1)c1ccccc1C(=O)N2C [Compound 26] | -2.9 | 26.5 | -19 | 20.1 | -7.3 | 55 | 4.6 | -19 | 10.9 | 0.8 | 42.5 | 5.7 | -23.3 | -4.9 | 7.3 | -4.7 | 8.6 | 0 | -6.9 | 2.3 | % Inhibiton, DNAPK ([14]; proteome PC3, peptide […]k[…]): 10.1%; % Inhibiton, DNAPK ([14]; proteome PC3, peptide k[…]): 23.8%
2 | COc1cc(C(=O)N2CCC(N3CCN(C)CC3)CC2)ccc1Nc1ncc2c(n1)N(C1CCCC1)c1ccccc1C(=O)N2C [Compound 25, 11-cyclopentyl-2-((2-methoxy-4-(4-(4-methylpiperazin-1-yl)piperidine-1-carbonyl)phenyl)amino)-5-methyl-5H-benzo[e]pyrimido[5,4-b][1,4]diazepin-6(11H)-one] | 1.2 | -2.9 | -1.8 | 43.5 | 6.5 | 12.6 | 42.4 | -7.5 | 11.8 | -7.0 | 65.8 | 8.1 | 6.4 | 6.5 | 8.7 | 7.8 | -20.7 | -5.4 | -15.7 | 2.3 | % Inhibiton, DNAPK ([14]; proteome PC3, peptide […]k[…]): -16.3%; % Inhibiton, DNAPK ([14]; proteome PC3, peptide k[…]): -9.9%
